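Each compound was tested at five concentrations against cells in 96-well plates for 48 hours. At the GI50, growth is halved. The concentration for full growth arrest is given as TGI.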
Columns and labels:
Assay in all cases: DTP human tumour cell line panel, 48 h
SR leukemia = test system: SR leukemia
M14 melanoma = test system: M14 melanoma
U251 CNS = test system: U251 CNS
MCF7 breast = test system: MCF7 breast
HCC-2998 colon = test system: HCC-2998 colon
IGROV1 ovarian = test system: IGROV1 ovarian
MOLT-4 leukemia = test system: MOLT-4 leukemia
SK-MEL-2 melanoma = test system: SK-MEL-2 melanoma
SNB-19 CNS = test system: SNB-19 CNS
NCI-H522 lung = test system: NCI-H522 lung

Row | SMILES | TGI (SR leukemia) [µM] | TGI (M14 melanoma) [µM] | TGI (U251 CNS) [µM] | TGI (MCF7 breast) [µM] | TGI (HCC-2998 colon) [µM] | TGI (IGROV1 ovarian) [µM] | TGI (MOLT-4 leukemia) [µM] | TGI (SK-MEL-2 melanoma) [µM] | TGI (SNB-19 CNS) [µM] | TGI (NCI-H522 lung) [µM] | GI50 (SR leukemia) [µM] | GI50 (M14 melanoma) [µM] | GI50 (MCF7 breast) [µM] | GI50 (HCC-2998 colon) [µM] | GI50 (MOLT-4 leukemia) [µM] | GI50 (SK-MEL-2 melanoma) [µM] | GI50 (SNB-19 CNS) [µM]
1 | CC(C)OC(=O)c1ccc(NCC2=CC(=O)C=CC2=O)cc1Cl | 8.22 | > 100 | 54.9 | > 60.1 | 32.8 | 30.5 | > 30.7 | > 100 | 44.2 |  |  |  |  |  |  |  | 
2 | COc1ccc2oc(S(=O)(=O)N3CC(CCl)c4ccc([N+](=O)[O-])cc43)cc2c1 (stereo not drawn) | > 100 | 32.7 | 0.348 | 14.4 | 2.62 |  | > 100 | 2.96 | 29.2 | 0.246 |  |  |  |  |  |  | 
3 | NNC(=O)CC(=O)Nc1ccc(Cl)cc1 | > 100 |  | > 100 | > 100 | > 100 | > 100 | > 100 | > 100 | > 100 | > 100 |  |  |  |  |  |  | 
4 | O=C(CCc1cccc(O)c1)NCCc1cccc(O)c1 | > 100 | > 100 | > 100 | > 100 | > 100 | > 100 | > 100 | > 100 | > 100 | > 100 |  |  |  |  |  |  | 
5 | CCCSc1cc(Cl)c(C)cc1S(=O)(=O)n1ccnc1OCCCN(C)C | > 100 | > 100 | > 100 | > 100 | > 100 | > 100 | > 100 | > 100 | > 100 | > 100 |  |  |  |  |  |  | 
6 | COc1ccc2c(c1)OCC1(O)Cc3ccccc3OC21 (stereo not drawn) | > 100 | > 100 | > 100 | > 100 | > 100 | > 100 | > 100 | > 100 |  | > 100 |  |  |  |  |  |  | 
7 | Brc1ccc2c(-c3nc(-c4c[nH]c5ccccc45)cs3)c[nH]c2c1 | > 82.3 | > 100 | > 100 | > 100 | > 100 | > 100 | > 87 | > 84.3 | > 100 | > 100 |  |  |  |  |  |  | 
8 | Cn1ccnc1CCc1ccc(F)cc1F | > 100 | > 100 | > 100 | > 100 | > 100 | > 100 | > 100 | > 100 | > 100 | > 100 |  |  |  |  |  |  | 
9 | COc1c(-c2cc(C)c(Cl)c(=O)[nH]2)c(O)c(OC)c2occc12 | > 100 | > 100 | > 100 | > 100 | > 100 | > 100 | > 100 | > 100 | > 100 | > 100 |  |  |  |  |  |  | 
10 | C(=N\Nc1ncc(-c2cc3cc4c(cc3o2)OCO4)s1)/c1c[nH]c2ccccc12 | > 100 | 12.7 |  | 5.39 | 5.13 |  | 9.49 | 8.07 | 6.25 |  | 0.912 | 3.34 | 0.566 | 2.06 | 0.385 | 2.6 | 1.57
11 | CCCC1NC(C#N)(C#N)C(CCC)NC1(C#N)C#N (stereo not drawn) | 1.49 | > 60.6 | > 100 | > 100 | > 58.2 | > 62.2 | 1.99 | > 100 | > 100 | 1.51 |  |  |  |  |  |  | 
12 | COc1cc2c(cc1OC)C1CN3C(=O)CCC3C(O)C1c1cc(OC)c(OC)cc1-2 (stereo not drawn) | > 100 | > 100 | > 100 | > 100 | > 100 | > 100 | > 100 | > 100 | > 100 | > 100 |  |  |  |  |  |  | 
13 | CC(C)(C)c1cc(C(O)(C(=O)O)C(=O)O)cc(C(C)(C)C)c1O | > 100 | > 100 | > 100 | > 100 |  | > 100 | > 100 | > 100 | > 100 | > 100 |  |  |  |  |  |  | 
14 | O=C(Nc1ccccc1)c1cc2c(cc1Cl)Sc1nccn1S2(=O)=O | > 73 | > 58.2 | > 71.7 | > 60 | 37.7 | > 72.1 | > 69 | 58.3 | > 100 | 38.6 |  |  |  |  |  |  | 
15 | CCOC(=O)c1c(SC(=O)c2cc(OC)c(OC)c(OC)c2)n(-c2ccccc2)c(=S)n(-c2ccccc2)c1=O | > 100 | > 100 | > 100 | > 100 | > 100 | > 100 | > 100 |  | > 100 | > 100 |  |  |  |  |  |  | 
16 | CC1(C)C2CCC1(CS(=O)(=O)Nc1ccccc1)C(=O)C2 (stereo not drawn) | > 100 | > 100 | > 100 | > 100 | > 100 | > 100 | > 100 | > 100 | > 100 | > 100 |  |  |  |  |  |  | 
17 | COC(=O)c1c(OC(C)=O)ccc2c1c1c(OC(C)=O)c3ccccc3c(OC(C)=O)c1n2Cc1cc(OC)cc(OC)c1 | > 100 | > 100 | > 100 | > 100 | 10.9 | > 100 | > 100 | 12.5 | > 100 | 9.2 |  |  |  |  |  |  | 
18 | O=C1Cc2c(-c3ccc(Cl)cc3)cc(-c3ccccc3)nc2-c2ccccc2N1 | > 100 | > 100 | 17.8 | > 42.5 | 24.2 | > 50.7 | > 76.5 | 97.7 | 7.31 | 32.9 |  |  |  |  |  |  | 
19 | COCn1c2ccc(OC(C)=O)cc2c2c(=O)oc(C)nc21 | > 100 | > 100 | > 100 | > 100 | > 100 | > 100 | > 100 | > 100 | > 100 | > 100 |  |  |  |  |  |  | 
